Legend:
[1] = molecular target: T1, EP3 receptor (Homo sapiens, UniProt P43115); test: [3H]-PGE2 binding assay (EP3 competition binding); details: read-out: [3H]-PGE2 Binding Ki
T1 construct: purchased Millipore HTS092M
T1 sequence (P43115 1-390): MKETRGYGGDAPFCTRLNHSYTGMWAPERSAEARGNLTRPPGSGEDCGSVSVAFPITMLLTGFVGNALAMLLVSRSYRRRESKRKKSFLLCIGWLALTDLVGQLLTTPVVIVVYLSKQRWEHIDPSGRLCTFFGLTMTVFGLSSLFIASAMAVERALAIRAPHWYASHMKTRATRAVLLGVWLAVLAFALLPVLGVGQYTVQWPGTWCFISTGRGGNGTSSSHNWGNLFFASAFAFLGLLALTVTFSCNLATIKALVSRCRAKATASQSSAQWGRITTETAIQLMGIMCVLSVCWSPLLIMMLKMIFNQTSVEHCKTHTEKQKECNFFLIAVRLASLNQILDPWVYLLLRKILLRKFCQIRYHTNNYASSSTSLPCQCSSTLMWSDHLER
Summary of the method: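 Scintillation-bead competition binding with EP3 membranes (2 μg/well), 2 nM [3H]-PGE2, 0.1% DMSO, in 50 mM Tris, 10 mM MgCl2, 1 mM EDTA, pH 7.4.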

[2] = molecular target: T1, EP3 receptor; test: CHO cell cAMP assay (forskolin and sulprostone stimulated, HTRF); assay type: cell-based; details: CHO cells; sulprostone 700 nM (EC80) and FSK 2 μM (EC70), 37° C. for 30 minutes; read-out: CHO_cAMP IC50

SMILES | Ki [1] | IC50 [2]
CC(C)C(CC(=O)NS(=O)(=O)c1cc(Cl)c(Cl)s1)c1ccc(-c2ccc3cccc(F)c3c2)[nH]c1=O (stereo not drawn) [compound 256, N-(4,5-dichlorothiophen-2-ylsulfonyl)-3-(6-(8-fluoronaphthalen-2-yl)-2-oxo-1,2-dihydropyridin-3-yl)-4-methylpentanamide] | 164 nM | 579 nM
CCn1cnc2c(F)c(-c3ccc(C(C=C4OC(=O)NC4=O)C(C)C)c(=O)[nH]3)ccc21 (stereo not drawn) [compound 90, 5-(2-(6-(1-ethyl-4-fluoro-1H-benzo[d]imidazol-5-yl)-2-oxo-1,2-dihydropyridin-3-yl)-3-methylbutyli-dene)oxazolidine-2,4-dione] | 633 nM | 5430 nM
CC(C)C1(Cc2ccc(-c3ccc4cccc(F)c4c3)[nH]c2=O)OC(=O)NC1=O (stereo not drawn) [Compound #262, 5-((6-(8-fluoronaphthalen-2-yl)-2-oxo-1,2-dihydropyridin-3-yl)methyl)-5-isopropyloxazolidine-2,4-dione] | 152 nM | 282 nM
CCN1CCOc2ccc(-c3ccc(C(C(C)C)N4CCS(=O)(=O)CC4)c(=O)[nH]3)cc21 (stereo not drawn) [Compound #169, 3-(1-(1,1-dioxidothiomorpholino)-2-methylpropyl)-6-(4-ethyl-3,4-dihydro-2H-benzo[b][1,4]oxazin-6-yl)pyridin-2(1H)-one] | 51 nM | 476 nM
CCn1ncc2c(F)cc(-c3ccc(C4=CCN(S(=O)(=O)C(C)C)C4)c(=O)[nH]3)cc21 [compound 297, 6-(1-ethyl-4-fluoro-1H-indazol-6-yl)-3-(1-(isopropylsulfonyl)-2,5-dihydro-1H-pyrrol-3-yl)pyridin-2(1H)-one] | 8 nM | 194 nM
CCn1ncc2c(F)cc(-c3ccc(C4CCN(S(=O)(=O)C(C)C)CC4)c(=O)[nH]3)cc21 [compound 198, 6-(1-ethyl-4-fluoro-1H-indazol-6-yl)-3-(1-(isopropylsulfonyl)piperidin-4-yl)pyridin-2(1H)-one] | 19 nM | 530 nM
CCn1ncc2c(F)cc(-c3ccc(C4(F)CCCN(S(=O)(=O)C(C)C)C4)c(=O)[nH]3)cc21 (stereo not drawn) [compound 296, 6-(1-ethyl-4-fluoro-1H-indazol-6-yl)-3-(3-fluoro-1-(isopropylsulfonyl)piperidin-3-yl)pyridin-2(1H)-one] | 1 nM | 103 nM
CC1(c2ccc(-c3ccc4ccccc4c3)[nH]c2=O)CN/C(=N\C#N)N1 (stereo not drawn) [compound 283] | 49 nM | 180 nM
CCn1ncc2c(C)cc(-c3ccc(C(CC4OC(=O)NC4=O)C(C)C)c(=O)[nH]3)cc21 (stereo not drawn) [compound 126, 5-(2-(6-(1-ethyl-4-methyl-1H-indazol-6-yl)-2-oxo-1,2-dihydropyridin-3-yl)-3-methylbutyl)oxazolidine-2,4-dione] | 65 nM | 382 nM
CC(C)C(Cc1ccc(-c2ccc3cccc(F)c3c2)[nH]c1=O)c1nnc[nH]1 (stereo not drawn) [compound 309, 6-(8-Fluoronaphthalen-2-yl)-3-(3-methyl-2-(4H-1,2,4-triazol-3-yl)butyl)pyridin-2(1H)-one] | 12 nM | 66 nM
CC(C)C(C(=O)NCCN(C)C)c1ccc(-c2ccc3ncsc3c2)[nH]c1=O (stereo not drawn) [compound 246, 2-(6-(benzo[d]thiazol-6-yl)-2-oxo-1,2-dihydropyridin-3-yl)-N-(2-(dimethylamino)ethyl)-3-methylbutanamide] | > 10000 nM | 17000 nM
CCn1ncc2c(F)cc(-c3ccc(C(C(C)C)N4CCS(=O)(=O)CC4)c(=O)[nH]3)cc21 (stereo not drawn) [Compound #168, 3-(1-(1,1-dioxidothiomorpholino)-2-methylpropyl)-6-(1-ethyl-4-fluoro-1H-indazol-6-yl)pyridin-2(1H)-one] | 26 nM | 130 nM
CC(C)C(C(=O)NS(=O)(=O)c1cc(Cl)c(Cl)s1)c1ccc(-c2ccc3cccc(F)c3c2)[nH]c1=O (stereo not drawn) [compound 175, N-(4,5-dichlorothiophen-2-ylsulfonyl)-2-(6-(8-fluoronaphthalen-2-yl)-2-oxo-1,2-dihydropyridin-3-yl)-3-methylbutanamide] | 110 nM | 171 nM
CCn1ncc2c(F)cc(-c3ccc(C(/C=C4\CCNC4=O)(CC)CC)c(=O)[nH]3)cc21 [compound 16, 6-(1-ethyl-4-fluoro-indazol-6-yl)-3-[1-ethyl-1-[(E)-(2-oxopyrrolidin-3-ylidene)methyl]propyl]-1H-pyridin-2-one] | 6 nM | 17 nM
CCS(=O)(=O)N1CCC(c2ccc(-c3ccc4ccccc4c3)[nH]c2=O)CC1 [compound 190, 3-(1-(ethylsulfonyl)piperidin-4-yl)-6-(naphthalen-2-yl)pyridin-2(1H)-one] | 32 nM | 614 nM
CC(C)C(Cc1ccc(-c2ccc3cccc(F)c3c2)[nH]c1=O)c1ncc[nH]1 (stereo not drawn) [compound 307, 3-(2-(1H-Imidazol-2-yl)-3-methylbutyl)-6-(8-fluoronaphthalen-2-yl)pyridin-2(1H)-one] | 53 nM | 385 nM
CC(C)C(F)(C(N)=O)c1ccc(-c2ccc3ccccc3c2)[nH]c1=O (stereo not drawn) [compound 217, 2-fluoro-3-methyl-2-(6-(naphthalen-2-yl)-2-oxo-1,2-dihydropyridin-3-yl)butanamide] | 49 nM | 1140 nM
CCn1ncc2c(F)cc(-c3ccc(C(CN4CCN(S(C)(=O)=O)CC4)C(C)C)c(=O)[nH]3)cc21 (stereo not drawn) [Compound #109, 6-(1-ethyl-4-fluoro-1H-indazol-6-yl)-3-(3-methyl-1-(4-(methylsulfonyl)piperazin-1-yl)butan-2-yl)pyridin-2(1H)-one] | 27 nM | 115 nM
CCn1ncc2c(C)cc(-c3ccc(C(/C=C4\OC(=O)NC4=O)C(C)C)c(=O)[nH]3)cc21 (stereo not drawn) [compound 106, (Z)-5-(2-(6-(1-ethyl-4-methyl-1H-indazol-6-yl)-2-oxo-1,2-dihydropyridin-3-yl)-3-methylbutylidene)oxazolidine-2,4-dione] | 50 nM | 555 nM
CC1(c2ccc(-c3ccc4ccccc4c3)[nH]c2=O)N=CNC1=O (stereo not drawn) [compound 222, 3-(4-methyl-5-oxo-4,5-dihydro-1H-imidazol-4-yl)-6-(naphthalen-2-yl)-1,2-dihydropyridin-2-one] | 327 nM | 4270 nM
CC(C)C(C(=O)NCCN(C)C)c1ccc(-c2ccc3c(c2)OCCN3C)[nH]c1=O (stereo not drawn) [compound 244, N-(2-(dimethylamino)ethyl)-3-methyl-2-(6-(4-methyl-3,4-dihydro-2H-benzo[b][1,4]oxazin-7-yl)-2-oxo-1,2-dihydropyridin-3-yl)butanamide] | 501 nM | 2390 nM
CC(C)C1(Cc2ccc(-c3ccc4cccc(F)c4c3)[nH]c2=O)NC(=O)NC1=O (stereo not drawn) [compound 263, 5-((6-(8-fluoronaphthalen-2-yl)-2-oxo-1,2-dihydropyridin-3-yl)methyl)-5-isopropylimidazolidine-2,4-dione] | 108 nM | 336 nM
O=C1NC(=O)/C(=C/C(c2ccc(-c3ccc4cccc(F)c4c3)[nH]c2=O)C2CCCCC2)O1 (stereo not drawn) [compound 134, (Z)-5-(2-cyclohexyl-2-(6-(8-fluoronaphthalen-2-yl)-2-oxo-1,2-dihydropyridin-3-yl)ethylidene)oxazolidine-2,4-dione] | 4 nM | 8 nM
CC(C)C(C(=O)NCCN(C)C)c1ccc(-c2ccc3scnc3c2)[nH]c1=O (stereo not drawn) [compound 243, 2-(6-(benzo[d]thiazol-5-yl)-2-oxo-1,2-dihydropyridin-3-yl)-N-(2-(dimethylamino)ethyl)-3-methylbutanamide] | 2600 nM | 14000 nM
O=c1[nH]c(-c2ccc3ccccc3c2)ccc1C1CCOCC1 [compound 192, 6-(naphthalen-2-yl)-3-(tetrahydro-2H-pyran-4-yl)pyridin-2(1H)-one] | 60 nM | 1330 nM
CCOC(=O)C(C1=CCCCC1)c1ccc(-c2ccc3ccccc3c2)[nH]c1=O (stereo not drawn) [Compound #280, ethyl 2-(cyclohex-1-en-1-yl)-2-(6-(naphthalen-2-yl)-2-oxo-1,2-dihydropyridin-3-yl)acetate] | 76 nM | 671 nM
CC(C)C(Cc1ccc(-c2ccc3cccc(F)c3c2)[nH]c1=O)c1nnn[nH]1 (stereo not drawn) [compound 270, 6-(8-Fluoronaphthalen-2-yl)-3-(3-methyl-2-(1H-tetrazol-5-yl)butyl)pyridin-2(1H)-one] | 164 nM | 540 nM
CCn1ncc2c(Cl)cc(-c3ccc(C(/C=C4\OC(=O)NC4=O)C(C)C)c(=O)[nH]3)cc21 (stereo not drawn) [compound 116, (Z)-5-(2-(6-(4-chloro-1-ethyl-1H-indazol-6-yl)-2-oxo-1,2-dihydropyridin-3-yl)-3-methylbutylidene)oxazolidine-2,4-dione] | 8 nM | 76 nM
CCn1ncc2c(F)cc(-c3ccc(C(CC)(CC)c4ccon4)c(=O)[nH]3)cc21 [Compound #29, 6-(1-ethyl-4-fluoro-1H-indazol-6-yl)-3-(3-(isoxazol-3-yl)pentan-3-yl)pyridin-2(1H)-one] | 3 nM | 9 nM
CC(C)C(C(=O)NCCOCCOCCN(C)C)c1ccc(-c2ccc3cccc(F)c3c2)[nH]c1=O (stereo not drawn) [compound 229, N-(2-(2-(2-(dimethylamino)ethoxy)ethoxy)ethyl)-2-(6-(8-fluoronaphthalen-2-yl)-2-oxo-1,2-dihydropyridin-3-yl)-3-methylbutanamide] | 12 nM | 142 nM

— patent publication US10336701B2, “Pyridin-2-one derivatives of formula (II) useful as EP3 receptor antagonists” (Janssen Pharmaceutica NV, priority 2017, dated 2019)
